Activity calls are given as the source filed them. No cut-off for these calls is given here.
What was measured:
[1] = target: T1, Protein smoothened (Homo sapiens, UniProt Q99835); assay: Displacement of [125I]-PA cyclopamine from smoothened expressed in african green monkey COS-1 cells after 10 mins by autoradiography; type: cell-based
[2] = Growth inhibition of Ptch +/- mouse medulloblastoma cells; type: functional; conditions: Medulloblastoma cell
[3] = Intrinsic clearance in rat liver microsomes assessed per mg of protein; type: ADME, Microsome
[4] = target: T1, Protein smoothened; conditions: Shh Light II; 2 uM
Description: Antagonist activity at smoothened expressed in mouse Shh Light2 cells co-expressing Gli-dependent reporter gene assessed as inhibition of Hh pathway at 2 uM

[5] = tested on: Shh Light II; assay: Cytotoxicity against mouse Shh Light2 cells assessed as cell viability at 2.5 uM; type: cell-based

T1 sequence (Q99835 whole entry): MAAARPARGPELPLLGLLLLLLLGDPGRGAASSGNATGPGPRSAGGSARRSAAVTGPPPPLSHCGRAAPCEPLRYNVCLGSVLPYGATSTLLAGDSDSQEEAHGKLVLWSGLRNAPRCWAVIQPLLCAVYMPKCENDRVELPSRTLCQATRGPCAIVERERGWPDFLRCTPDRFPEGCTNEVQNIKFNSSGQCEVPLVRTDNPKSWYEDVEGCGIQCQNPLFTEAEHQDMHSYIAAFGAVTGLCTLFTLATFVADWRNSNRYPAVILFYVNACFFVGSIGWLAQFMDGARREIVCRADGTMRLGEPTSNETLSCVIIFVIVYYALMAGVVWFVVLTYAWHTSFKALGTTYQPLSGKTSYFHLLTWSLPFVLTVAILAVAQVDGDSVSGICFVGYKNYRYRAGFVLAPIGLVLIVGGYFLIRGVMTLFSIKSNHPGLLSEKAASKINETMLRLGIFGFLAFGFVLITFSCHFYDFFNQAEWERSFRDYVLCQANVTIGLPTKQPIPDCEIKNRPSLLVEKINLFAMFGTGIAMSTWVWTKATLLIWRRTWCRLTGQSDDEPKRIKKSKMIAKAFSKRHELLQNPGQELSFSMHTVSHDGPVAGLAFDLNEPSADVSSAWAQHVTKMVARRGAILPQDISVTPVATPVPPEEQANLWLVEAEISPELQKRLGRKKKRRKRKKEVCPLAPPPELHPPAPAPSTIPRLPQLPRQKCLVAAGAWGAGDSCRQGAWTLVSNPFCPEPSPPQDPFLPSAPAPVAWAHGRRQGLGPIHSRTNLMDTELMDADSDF

SMILES | IC50 [1] | other results
O=C(Nc1ccccc1-c1cnco1)N1CCN2C(=O)N([C@H]3C[C@@H]3c3ccccc3)C(=O)C2C1 (mixture of isomers) | 1800 nM | –
O=C(Nc1ccnn1-c1ccccc1)N1CCN2C(=O)N([C@H]3C[C@@H]3c3ccccc3)C(=O)CC2C1 (mixture of isomers) | 7800 nM | –
O=C(Nc1ccnn1-c1ccccc1)N1CCN2CC(=O)N([C@H]3C[C@@H]3c3ccccc3)C(=O)C2C1 (mixture of isomers) | 5100 nM | –
O=C(Nc1ccc2c(c1)OCO2)N1CCN2C(=O)N([C@H]3C[C@@H]3c3ccccc3)C(=O)C2C1 (mixture of isomers) | 700 nM | –
O=C(Nc1ccc(F)cc1Cl)N1CCN2C(=O)N([C@H]3C[C@@H]3c3ccccc3)C(=O)C2C1 (mixture of isomers) | 1100 nM | –
O=C(Nc1ccccc1-c1ccccc1)N1CCN2C(=O)N(Cc3ccccc3)C(=O)C2C1 (racemic) | > 2500 nM | –
O=C(Nc1ccccc1-c1ccccc1)N1CCN2C(=O)N([C@H]3C[C@@H]3c3ccccc3)CC2C1 (mixture of isomers) | 1400 nM | –
Cc1cccc(Cl)c1NC(=O)N1CCN2C(=O)N([C@H]3C[C@@H]3c3ccccc3)C(=O)C2C1 (mixture of isomers) | 770 nM | –
Cn1cc(-c2ncccc2NC(=O)N2CCN3C(=O)N([C@H]4C[C@@H]4c4ccccc4)C(=O)C3C2)cn1 (mixture of isomers) | 620 nM | –
O=C(C1CCCCC1)N1CCN2C(=O)N([C@H]3C[C@@H]3c3ccccc3)C(=O)C2C1 (mixture of isomers) | > 1500 nM | –
O=C(Nc1ccc(-c2ccccc2)cc1)N1CCN2C(=O)N([C@H]3C[C@@H]3c3ccccc3)C(=O)C2C1 (mixture of isomers) | 890 nM | –
O=C(Nc1c(Cl)cc(C(F)(F)F)cc1Cl)N1CCN2C(=O)N([C@H]3C[C@@H]3c3ccccc3)C(=O)C2C1 (mixture of isomers) | 280 nM | –
CN(C(=O)N1CCN2C(=O)N([C@H]3C[C@@H]3c3ccccc3)C(=O)C2C1)c1ccccc1-c1ccccc1 (mixture of isomers) | 1000 nM | –
O=C(Nc1ccc(F)c(Cl)c1Cl)N1CCN2C(=O)N([C@H]3C[C@@H]3c3ccccc3)C(=O)C2C1 (mixture of isomers) | 480 nM | –
O=C(Nc1ccccc1-c1ccccc1)N1CCN2C(=O)N([C@H]3C[C@H](c4ccccc4)C3)C(=O)C2C1 (mixture of isomers) | 440 nM | –
Cc1c(Cl)cccc1NC(=O)N1CCN2C(=O)N([C@H]3C[C@@H]3c3ccccc3)C(=O)C2C1 (mixture of isomers) | 460 nM | –
N#Cc1ccccc1NC(=O)N1CCN2C(=O)N([C@H]3C[C@@H]3c3ccccc3)C(=O)C2C1 (mixture of isomers) | > 2500 nM | –
COc1ccccc1NC(=O)N1CCN2C(=O)N([C@H]3C[C@@H]3c3ccccc3)C(=O)C2C1 (mixture of isomers) | 1700 nM | –
O=C(Nc1ccccc1-c1ccccc1)N1CCN2C(=O)N(c3cccc4ccccc34)C(=O)C2C1 (racemic) | > 2500 nM | –
CC(=O)N1CCN2C(=O)N([C@H]3C[C@@H]3c3ccccc3)C(=O)C2C1 (mixture of isomers) | > 1500 nM | –

SMILES | IC50 [1] | other results
O=C(Nc1ccccc1-c1ccccc1)N1CCN2C(=O)N(CCc3ccccc3)C(=O)C2C1 (racemic) | 2000 nM | –
O=C(Nc1c(Cl)cccc1Cl)N1CCN2C(=O)N([C@H]3C[C@@H]3c3ccccc3)C(=O)C2C1 (mixture of isomers) | 280 nM | –
O=C(Nc1ccccc1-c1ccccc1)N1CCN2C(=O)N(c3cccc(-c4ccccc4)c3)C(=O)C2C1 (racemic) | > 2500 nM | –
CCCCN1C(=O)C2CN(C(=O)Nc3ccccc3-c3ccccc3)CCN2C1=O (racemic) | > 2500 nM | –
O=C(NCc1ccco1)N1CCN2C(=O)N([C@H]3C[C@@H]3c3ccccc3)C(=O)C2C1 (mixture of isomers) | > 2500 nM | –
O=C(Nc1ccccc1-c1ccccc1)c1ccc2c(c1)C(=O)N([C@H]1C[C@@H]1c1ccccc1)C2=O | 3200 nM | –
O=C1C2CN(CC3CCCCC3)CCN2C(=O)N1[C@H]1C[C@@H]1c1ccccc1 (mixture of isomers) | > 2500 nM | –
CC(C)(C)C(=O)N1CCN2C(=O)N([C@H]3C[C@@H]3c3ccccc3)C(=O)C2C1 (mixture of isomers) | 4000 nM | –
O=C(Nc1cccnc1-c1ccc(Cl)cc1)N1CCN2C(=O)N([C@H]3C[C@@H]3c3ccccc3)C(=O)C2C1 (mixture of isomers) | 680 nM | –
COC(=O)c1cccc(NC(=O)N2CCN3C(=O)N([C@H]4C[C@@H]4c4ccccc4)C(=O)C3C2)c1Cl (mixture of isomers) | 1100 nM | –
CCCCN(CCCC)C(=O)N1CCN2C(=O)N([C@H]3C[C@@H]3c3ccccc3)C(=O)C2C1 (mixture of isomers) | 920 nM | –
O=C(Nc1ccccc1-c1ccccc1)N1CCN2C(=O)N(C3CC34CCCCC4)C(=O)C2C1 (racemic) | > 2500 nM | –
O=C(Nc1c(Cl)cc(F)cc1Cl)N1CCN2C(=O)N([C@H]3C[C@@H]3c3ccccc3)C(=O)C2C1 (mixture of isomers) | 310 nM | –
CCCCCCNC(=O)N1CCN2C(=O)N([C@H]3C[C@@H]3c3ccccc3)C(=O)C2C1 (mixture of isomers) | 380 nM | –
O=C(Nc1ccccc1C(F)(F)F)N1CCN2C(=O)N([C@H]3C[C@@H]3c3ccccc3)C(=O)C2C1 (mixture of isomers) | 890 nM | –
O=C(Nc1ccccc1-c1ccccc1)N1CCN2C(=O)N(C3Cc4ccccc4C3)C(=O)C2C1 (racemic) | 880 nM | –
COC(=O)N1CCN2C(=O)N([C@H]3C[C@@H]3c3ccccc3)C(=O)C2C1 (mixture of isomers) | > 1500 nM | –
CN(C)C(=O)N1CCN2C(=O)N([C@H]3C[C@@H]3c3ccccc3)C(=O)C2C1 (mixture of isomers) | > 2500 nM | inhibition [4]: Active; Activity [5]: Non-toxic
O=C(Nc1ccccc1-c1ccccc1)N1CCN2C(=O)N([C@H]3C[C@H]3c3ccccc3)C(=O)C2C1 (mixture of isomers) | > 2500 nM | –

Continued, in another order:

IC50 [1] | SMILES | other results
77 nM | CS(=O)(=O)c1cc(Cl)c(NC(=O)N2CCN3C(=O)N([C@H]4C[C@@H]4c4ccccc4)C(=O)C3C2)c(Cl)c1 (mixture of isomers) | –
19 nM | O=C(Nc1cccnc1-c1cccc(Cl)c1)N1CCN2C(=O)N([C@H]3C[C@@H]3c3ccccc3)C(=O)C2C1 (mixture of isomers) | –
88 nM | O=C(Nc1ccncc1-c1ccccc1)N1CCN2C(=O)N([C@H]3C[C@@H]3c3ccccc3)C(=O)C2C1 (mixture of isomers) | –
140 nM | O=C(Nc1cccnc1-c1ccccc1Cl)N1CCN2C(=O)N([C@H]3C[C@@H]3c3ccccc3)C(=O)C2C1 (mixture of isomers) | –
280 nM | O=C(Nc1cc(Cl)cc(Cl)c1)N1CCN2C(=O)N([C@H]3C[C@@H]3c3ccccc3)C(=O)C2C1 (mixture of isomers) | –
220 nM | O=C(Nc1ccccc1-c1ccsc1)N1CCN2C(=O)N([C@H]3C[C@@H]3c3ccccc3)C(=O)C2C1 (mixture of isomers) | –
220 nM | O=C(Nc1cccc(Cl)c1Cl)N1CCN2C(=O)N([C@H]3C[C@@H]3c3ccccc3)C(=O)C2C1 (mixture of isomers) | CC50 [2]: 3.3 nM; microsomal CLint [3]: 180 µL/min/mg
88 nM | O=C(Nc1cccnc1-c1ccsc1)N1CCN2C(=O)N([C@H]3C[C@@H]3c3ccccc3)C(=O)C2C1 (mixture of isomers) | –
250 nM | O=C(NC1CCCCC1)N1CCN2C(=O)N([C@H]3C[C@@H]3c3ccccc3)C(=O)C2C1 (mixture of isomers) | –
12 nM | O=C(Nc1cccnc1-c1ccccc1)N1CCN2C(=O)N([C@H]3C[C@@H]3c3ccccc3)C(=O)C2C1 (mixture of isomers) | –
130 nM | O=C(Nc1c(Cl)cc(OC(F)(F)F)cc1Cl)N1CCN2C(=O)N([C@H]3C[C@@H]3c3ccccc3)C(=O)C2C1 (mixture of isomers) | –
84 nM | Cc1cc(C#N)cc(Cl)c1NC(=O)N1CCN2C(=O)N([C@H]3C[C@@H]3c3ccccc3)C(=O)C2C1 (mixture of isomers) | –
160 nM | O=C(Nc1cccnc1-c1cccc(C(F)(F)F)c1)N1CCN2C(=O)N([C@H]3C[C@@H]3c3ccccc3)C(=O)C2C1 (mixture of isomers) | –
210 nM | CC(C)c1ccccc1NC(=O)N1CCN2C(=O)N([C@H]3C[C@@H]3c3ccccc3)C(=O)C2C1 (mixture of isomers) | –
13 nM | O=C(Nc1ccnn1-c1ccccc1)N1CCN2C(=O)N([C@H]3C[C@@H]3c3ccccc3)C(=O)C2C1 (mixture of isomers) | –
94 nM | O=C(Nc1ccccc1-c1ccccc1)N1CCN2C(=O)N([C@H]3C[C@@H]3c3ccccc3)C(=O)C2C1 (mixture of isomers) | CC50 [2]: 12 nM; microsomal CLint [3]: > 300 µL/min/mg
47 nM | COc1cccc(-c2ncccc2NC(=O)N2CCN3C(=O)N([C@H]4C[C@@H]4c4ccccc4)C(=O)C3C2)c1 (mixture of isomers) | –
62 nM | N#Cc1cc(Cl)c(NC(=O)N2CCN3C(=O)N([C@H]4C[C@@H]4c4ccccc4)C(=O)C3C2)c(Cl)c1 (mixture of isomers) | –
